Patent US20260265329A1, “POLYPEPTIDE AND DERIVATIVE THEREOF, COMPOSITION, AND USE THEREOF” (HANGZHOU SCIWIND BIOSCIENCES CO., LTD., priority 2023, published 2026)
Starred links: 1 amine or outer side, 2 acyl side, 3 side chain; linkers in the order of their positions; H or OH if unused. Non-standard residues stand in square brackets, D forms with d. Residues, ends and D or L forms follow the SMILES beside them. *: point of attachment. C20 diacid = O=C(O)CCCCCCCCCCCCCCCCCCC(=O)*; C18 diacid = O=C(O)CCCCCCCCCCCCCCCCC(=O)*; C16 diacid = O=C(O)CCCCCCCCCCCCCCC(=O)*; γGlu = O=C(O)[C@H](CCC(=O)[*:2])N[*:1]; βAsp = O=C(O)[C@H](CC(=O)[*:2])N[*:1]; Hyp = O=C(O)[C@@H]1C[C@@H](O)CN1; Trx = NC[C@H]1CC[C@H](C(=O)O)CC1; AEEA = NCCOCCOCC(=O)O; Inp = O=C(O)C1CCNCC1

Target: T1, human amylin receptors (Homo sapiens, UniProt O60896+P30988)
T1 construct: host or cells: CHO-K1/Ga15/AMY3 cells, further stably transfected with a CRE-luciferase plasmid
T1 sequence (P30988 25-474): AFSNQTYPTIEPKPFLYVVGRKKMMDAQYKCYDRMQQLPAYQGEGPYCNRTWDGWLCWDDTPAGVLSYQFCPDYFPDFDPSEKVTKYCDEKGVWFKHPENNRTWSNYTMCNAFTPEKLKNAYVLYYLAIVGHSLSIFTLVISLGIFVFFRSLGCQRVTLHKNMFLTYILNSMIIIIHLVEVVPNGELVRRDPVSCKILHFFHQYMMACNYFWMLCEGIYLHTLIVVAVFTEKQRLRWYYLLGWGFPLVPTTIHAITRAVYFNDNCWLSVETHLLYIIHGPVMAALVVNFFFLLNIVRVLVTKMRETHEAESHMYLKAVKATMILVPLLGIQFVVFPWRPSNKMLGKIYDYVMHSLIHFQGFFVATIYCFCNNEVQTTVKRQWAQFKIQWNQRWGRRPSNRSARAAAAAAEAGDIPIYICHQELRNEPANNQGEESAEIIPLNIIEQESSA
T1 sequence (O60896 24-148 partner): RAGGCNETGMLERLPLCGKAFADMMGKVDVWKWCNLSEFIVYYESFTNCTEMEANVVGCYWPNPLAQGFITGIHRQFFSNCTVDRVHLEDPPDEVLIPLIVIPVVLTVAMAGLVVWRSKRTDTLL
Test: Luciferase assay in stably transfected amylin receptor/CRE-luc CHO cell line
Type: cell-based
Conditions: for Relative activity: EC50 ratio of Cagrilintide to the compound, Cagrilintide 100%; for EC50: amylin receptor/CRE-luc CHO cells, 24 hours incubation, luminescence

Row | Relative activity [%] | EC50 [nM] | SMILES
1 | 124 |  | CC[C@H](C)[C@H](NC(=O)[C@@H]1CCCN1C(=O)[C@H](CCCCN)NC(=O)[C@H](CC(C)C)NC(=O)[C@H](CC(N)=O)NC(=O)[C@H](CC(N)=O)NC(=O)[C@H](CO)NC(=O)[C@H](CO)NC(=O)[C@H](Cc1c[nH]cn1)NC(=O)[C@H](CCCNC(=N)N)NC(=O)[C@H](CC(C)C)NC(=O)[C@H](Cc1ccccc1)NC(=O)[C@H](CC(=O)O)NC(=O)[C@H](C)NC(=O)[C@H](CC(C)C)NC(=O)[C@H](CCCNC(=N)N)NC(=O)[C@H](CCC(N)=O)NC(=O)[C@@H](NC(=O)[C@H](C)NC(=O)[C@H](C)NC(=O)[C@@H](NC(=O)[C@H](CO)NC(=O)[C@H](CC(C)C)NC(=O)[C@H](CCC(N)=O)NC(=O)[C@H](CO)NC(=O)[C@H](C)NC(=O)COCCOCCNC(=O)COCCOCCNC(=O)[C@H]1CC[C@H](CNC(=O)CCCCCCCCCCCCCCCCCCC(=O)O)CC1)[C@@H](C)O)[C@@H](C)O)C(=O)N[C@@H](CC(C)C)C(=O)N1CCC[C@H]1C(=O)N1CCC[C@H]1C(=O)N[C@H](C(=O)N[C@@H](CC(N)=O)C(=O)N[C@H](C(=O)NCC(=O)N[C@@H](CO)C(=O)N[C@@H](CC(N)=O)C(=O)N[C@H](C(=O)N1C[C@H](O)C[C@H]1C(N)=O)[C@@H](C)O)C(C)C)[C@@H](C)O [M35] ({C20 diacid-Trx-AEEA-AEEA}-ASQLSTAATQRLADFLRHSSNNLKPILPPTNVGSNT[Hyp]-NH2)
2 |  | 0.059 | CC[C@H](C)[C@H](NC(=O)[C@@H]1CCCN1C(=O)[C@H](CCCCN)NC(=O)[C@H](CC(C)C)NC(=O)[C@H](CC(N)=O)NC(=O)[C@H](CC(N)=O)NC(=O)[C@H](CO)NC(=O)[C@H](CO)NC(=O)[C@H](Cc1c[nH]cn1)NC(=O)[C@H](CCCNC(=N)N)NC(=O)[C@H](CC(C)C)NC(=O)[C@H](Cc1ccccc1)NC(=O)[C@H](CC(=O)O)NC(=O)[C@H](C)NC(=O)[C@H](CC(C)C)NC(=O)[C@H](CCCNC(=N)N)NC(=O)[C@H](CCC(N)=O)NC(=O)[C@@H](NC(=O)[C@H](C)NC(=O)[C@H](C)NC(=O)[C@@H](NC(=O)[C@H](CO)NC(=O)[C@H](CC(C)C)NC(=O)[C@H](CCC(N)=O)NC(=O)[C@H](CO)NC(=O)[C@H](C)NC(=O)COCCOCCNC(=O)COCCOCCNC(=O)C1CCN(C(=O)CCCCCCCCCCCCCCCCCCC(=O)O)CC1)[C@@H](C)O)[C@@H](C)O)C(=O)N[C@@H](CC(C)C)C(=O)N1CCC[C@H]1C(=O)N1CCC[C@H]1C(=O)N[C@H](C(=O)N[C@@H](CC(N)=O)C(=O)N[C@H](C(=O)NCC(=O)N[C@@H](CO)C(=O)N[C@@H](CC(N)=O)C(=O)N[C@H](C(=O)N1C[C@H](O)C[C@H]1C(N)=O)[C@@H](C)O)C(C)C)[C@@H](C)O [M36] ({C20 diacid-Inp-AEEA-AEEA}-ASQLSTAATQRLADFLRHSSNNLKPILPPTNVGSNT[Hyp]-NH2)
3 | 184 | 0.03 | CC[C@H](C)[C@H](NC(=O)[C@@H]1CCCN1C(=O)[C@H](CCCCN)NC(=O)[C@H](CC(C)C)NC(=O)[C@H](CC(N)=O)NC(=O)[C@H](CC(N)=O)NC(=O)[C@H](CO)NC(=O)[C@H](CO)NC(=O)[C@H](Cc1c[nH]cn1)NC(=O)[C@H](CCCNC(=N)N)NC(=O)[C@H](CC(C)C)NC(=O)[C@H](Cc1ccccc1)NC(=O)[C@H](CC(=O)O)NC(=O)[C@H](C)NC(=O)[C@H](CC(C)C)NC(=O)[C@H](CCCNC(=N)N)NC(=O)[C@H](CCC(N)=O)NC(=O)[C@@H](NC(=O)[C@H](C)NC(=O)[C@H](C)NC(=O)[C@@H](NC(=O)[C@H](CO)NC(=O)[C@H](CC(C)C)NC(=O)[C@H](CCC(N)=O)NC(=O)[C@H](CO)NC(=O)[C@H](C)NC(=O)CC[C@H](NC(=O)CCCCCCCCCCCCCCCCC(=O)O)C(=O)O)[C@@H](C)O)[C@@H](C)O)C(=O)N[C@@H](CC(C)C)C(=O)N1CCC[C@H]1C(=O)N1CCC[C@H]1C(=O)N[C@H](C(=O)N[C@@H](CC(N)=O)C(=O)N[C@H](C(=O)NCC(=O)N[C@@H](CO)C(=O)N[C@@H](CC(N)=O)C(=O)N[C@H](C(=O)N1C[C@H](O)C[C@H]1C(N)=O)[C@@H](C)O)C(C)C)[C@@H](C)O [M37] ({C18 diacid-γGlu}-ASQLSTAATQRLADFLRHSSNNLKPILPPTNVGSNT[Hyp]-NH2)
4 | 181 | 0.03 | CC[C@H](C)[C@H](NC(=O)[C@@H]1CCCN1C(=O)[C@H](CCCCN)NC(=O)[C@H](CC(C)C)NC(=O)[C@H](CC(N)=O)NC(=O)[C@H](CC(N)=O)NC(=O)[C@H](CO)NC(=O)[C@H](CO)NC(=O)[C@H](Cc1c[nH]cn1)NC(=O)[C@H](CCCNC(=N)N)NC(=O)[C@H](CC(C)C)NC(=O)[C@H](Cc1ccccc1)NC(=O)[C@H](CC(=O)O)NC(=O)[C@H](C)NC(=O)[C@H](CC(C)C)NC(=O)[C@H](CCCNC(=N)N)NC(=O)[C@H](CCC(N)=O)NC(=O)[C@@H](NC(=O)[C@H](C)NC(=O)[C@H](C)NC(=O)[C@@H](NC(=O)[C@H](CO)NC(=O)[C@H](CC(C)C)NC(=O)[C@H](CCC(N)=O)NC(=O)[C@H](CO)NC(=O)[C@H](C)NC(=O)CC[C@H](NC(=O)CCCCCCCCCCCCCCC(=O)O)C(=O)O)[C@@H](C)O)[C@@H](C)O)C(=O)N[C@@H](CC(C)C)C(=O)N1CCC[C@H]1C(=O)N1CCC[C@H]1C(=O)N[C@H](C(=O)N[C@@H](CC(N)=O)C(=O)N[C@H](C(=O)NCC(=O)N[C@@H](CO)C(=O)N[C@@H](CC(N)=O)C(=O)N[C@H](C(=O)N1C[C@H](O)C[C@H]1C(N)=O)[C@@H](C)O)C(C)C)[C@@H](C)O [M38] ({C16 diacid-γGlu}-ASQLSTAATQRLADFLRHSSNNLKPILPPTNVGSNT[Hyp]-NH2)

Continued, compound first:

Row | SMILES | Relative activity [%] | EC50 [nM]
5 | CC[C@H](C)[C@H](NC(=O)[C@@H]1CCCN1C(=O)[C@H](CCCCN)NC(=O)[C@H](CC(C)C)NC(=O)[C@H](CC(N)=O)NC(=O)[C@H](CC(N)=O)NC(=O)[C@H](CO)NC(=O)[C@H](CO)NC(=O)[C@H](Cc1c[nH]cn1)NC(=O)[C@H](CCCNC(=N)N)NC(=O)[C@H](CC(C)C)NC(=O)[C@H](Cc1ccccc1)NC(=O)[C@H](CC(=O)O)NC(=O)[C@H](C)NC(=O)[C@H](CC(C)C)NC(=O)[C@H](CCCNC(=N)N)NC(=O)[C@H](CCC(N)=O)NC(=O)[C@@H](NC(=O)[C@H](C)NC(=O)[C@H](C)NC(=O)[C@@H](NC(=O)[C@H](CO)NC(=O)[C@H](CC(C)C)NC(=O)[C@H](CCC(N)=O)NC(=O)[C@H](CO)NC(=O)[C@H](C)NC(=O)COCCOCCNC(=O)COCCOCCNC(=O)[C@H](CCC(=O)O)NC(=O)CCCCCCCCCCCCCCCCCCC(=O)O)[C@@H](C)O)[C@@H](C)O)C(=O)N[C@@H](CC(C)C)C(=O)N1CCC[C@H]1C(=O)N1CCC[C@H]1C(=O)N[C@H](C(=O)N[C@@H](CC(N)=O)C(=O)N[C@H](C(=O)NCC(=O)N[C@@H](CO)C(=O)N[C@@H](CC(N)=O)C(=O)N[C@H](C(=O)N1C[C@H](O)C[C@H]1C(N)=O)[C@@H](C)O)C(C)C)[C@@H](C)O [M32] ({C20 diacid}-E[AEEA][AEEA]ASQLSTAATQRLADFLRHSSNNLKPILPPTNVGSNT[Hyp]-NH2) | 44 | 0.115
6 | CC[C@H](C)[C@H](NC(=O)[C@@H]1CCCN1C(=O)[C@H](CCCCN)NC(=O)[C@H](CC(C)C)NC(=O)[C@H](CC(N)=O)NC(=O)[C@H](CC(N)=O)NC(=O)[C@H](CO)NC(=O)[C@H](CO)NC(=O)[C@H](Cc1c[nH]cn1)NC(=O)[C@H](CCCNC(=N)N)NC(=O)[C@H](CC(C)C)NC(=O)[C@H](Cc1ccccc1)NC(=O)[C@H](CC(=O)O)NC(=O)[C@H](C)NC(=O)[C@H](CC(C)C)NC(=O)[C@H](CCCNC(=N)N)NC(=O)[C@H](CCC(N)=O)NC(=O)[C@@H](NC(=O)[C@H](C)NC(=O)[C@H](C)NC(=O)[C@@H](NC(=O)[C@H](CO)NC(=O)[C@H](CC(C)C)NC(=O)[C@H](CCC(N)=O)NC(=O)[C@H](CO)NC(=O)[C@H](C)NC(=O)COCCOCCNC(=O)COCCOCCNC(=O)C[C@H](NC(=O)CCCCCCCCCCCCCCCCCCC(=O)O)C(=O)O)[C@@H](C)O)[C@@H](C)O)C(=O)N[C@@H](CC(C)C)C(=O)N1CCC[C@H]1C(=O)N1CCC[C@H]1C(=O)N[C@H](C(=O)N[C@@H](CC(N)=O)C(=O)N[C@H](C(=O)NCC(=O)N[C@@H](CO)C(=O)N[C@@H](CC(N)=O)C(=O)N[C@H](C(=O)N1C[C@H](O)C[C@H]1C(N)=O)[C@@H](C)O)C(C)C)[C@@H](C)O [M33] ({C20 diacid-βAsp-AEEA-AEEA}-ASQLSTAATQRLADFLRHSSNNLKPILPPTNVGSNT[Hyp]-NH2) | 37 | 0.145
7 | CC[C@H](C)[C@H](NC(=O)[C@@H]1CCCN1C(=O)[C@H](CCCCN)NC(=O)[C@H](CC(C)C)NC(=O)[C@H](CC(N)=O)NC(=O)[C@H](CC(N)=O)NC(=O)[C@H](CO)NC(=O)[C@H](CO)NC(=O)[C@H](Cc1c[nH]cn1)NC(=O)[C@H](CCCNC(=N)N)NC(=O)[C@H](CC(C)C)NC(=O)[C@H](Cc1ccccc1)NC(=O)[C@H](CC(=O)O)NC(=O)[C@H](C)NC(=O)[C@H](CC(C)C)NC(=O)[C@H](CCCNC(=N)N)NC(=O)[C@H](CCC(N)=O)NC(=O)[C@@H](NC(=O)[C@H](C)NC(=O)[C@H](C)NC(=O)[C@@H](NC(=O)[C@H](CO)NC(=O)[C@H](CC(C)C)NC(=O)[C@H](CCC(N)=O)NC(=O)[C@H](CO)NC(=O)[C@H](C)NC(=O)COCCOCCNC(=O)COCCOCCNC(=O)[C@H](CC(=O)O)NC(=O)CCCCCCCCCCCCCCCCCCC(=O)O)[C@@H](C)O)[C@@H](C)O)C(=O)N[C@@H](CC(C)C)C(=O)N1CCC[C@H]1C(=O)N1CCC[C@H]1C(=O)N[C@H](C(=O)N[C@@H](CC(N)=O)C(=O)N[C@H](C(=O)NCC(=O)N[C@@H](CO)C(=O)N[C@@H](CC(N)=O)C(=O)N[C@H](C(=O)N1C[C@H](O)C[C@H]1C(N)=O)[C@@H](C)O)C(C)C)[C@@H](C)O [M34] ({C20 diacid}-D[AEEA][AEEA]ASQLSTAATQRLADFLRHSSNNLKPILPPTNVGSNT[Hyp]-NH2) | 40 | 0.132
